Laboratory results published in article PMC3582038 (Bioorganic & medicinal chemistry, 2012).
In brackets after ≈: the same amount, converted by molar mass. Marks after values point to notes of the source that are not given here.

What was measured:
[1] = In vivo pharmacokinetics in rats; details: for half-life: male, Sprague-Dawley, rat, plasma, iv, 10 mg/kg; for unbound peak plasma concentration as multiple of the MIC: peak plasma concentration converted to unbound; for fe (fraction of dose excreted unchanged in urine): mean (SD); for toxicity in both administration modes: IV 10 mg/kg and PO 100 mg/kg
[2] = tested on: E. coli K12 ΔtolC; type: cell-based; details: efflux pump deficient
[3] = tested on: M. tuberculosis; assay: Antituberculosis MIC, microbroth dilution; type: cell-based; details: M. tuberculosis MIC relative to compound 11
[4] = tested on: Strep. pyogenes ATCC 700294; assay: Antibacterial spectrum MIC, S. pyogenes; type: cell-based; details: Streptococcus pyogenes, ATCC700294, read-out: MIC S. pyogenes
[5] = rats, based on a 10 mg/kg IV dose; ref [21],[22] (Linezolid), [23],[24] (Ofloxacin); cited from earlier work

Row | Compound | unbound peak plasma concentration as multiple of the MIC ([1]; rats, IV 10 mg/kg) [times the MIC] | toxicity in both administration modes ([1]; rats) | MIC E. coli ΔtolC [2] [µg/mL] | also measured
1 | CN1CCN(c2ccc(C3CC(c4ccc([N+](=O)[O-])o4)=NO3)cc2)C(=O)C1 (stereo not shown) [Compound 15, 4-methyl-1-(4-(3-(5-nitrofuran-2-yl)-4,5-dihydroisoxazol-5-yl)phenyl)piperazin-2-one] | 0.71 |  |  | half-life [1]: 36.6 to 43.2 min; toxicity observed after IV dosing ([1]; rats, IV 10 mg/kg): seizures and death in one animal; deaths after oral administration ([1]; rats, PO 100 mg/kg): No animals died; fe (fraction of dose excreted unchanged in urine) ([1]; rats): 0.68 (0.44) %
2 | O=[N+]([O-])c1ccc(C2=NOC(c3ccc(N4CCOCC4)cc3)C2)o1 (stereo not shown) [Compound 6, 4-(4-(3-(5-Nitrofuran-2-yl)-4,5-dihydroisoxazol-5-yl)phenyl)morpholine] | 5.0 | non-toxic |  | 
3 | O=[N+]([O-])c1ccc(C2=NOC(c3ccc(N4CCOCC4)nc3)C2)o1 (stereo not shown) [Compound 7, 4-(5-(3-(5-Nitrofuran-2-yl)-4,5-dihydroisoxazol-5-yl)pyridin-2-yl)morpholine] | 9.8 | non-toxic | 6.25 (≈ 18.2 µM) | half-life [1]: 36.6 to 43.2 min; fe (fraction of dose excreted unchanged in urine) ([1]; rats): 0.021 (0.01) %
4 | CN1CCN(c2ccc(C3CC(c4ccc([N+](=O)[O-])o4)=NO3)cn2)C(=O)C1 (stereo not shown) [Compound 16, 4-methyl-1-(5-(3-(5-nitrofuran-2-yl)-4,5-dihydroisoxazol-5-yl)pyridin-2-yl)piperazin-2-one] |  |  | 6.25 (≈ 16.8 µM) | 
5 | O=[N+]([O-])c1ccc(C2=NOC(c3ccc(N4CC[S+]([O-])CC4)cc3)C2)o1 (stereo not shown) [Compound 12, 4-(4-(3-(5-nitrofuran-2-yl)-4,5-dihydroisoxazol-5-yl)phenyl)thiomorpholine 1-oxide] |  |  |  | fold weaker MIC value than 11 [3]: 8 fold
6 | O=[N+]([O-])c1ccc(C2=NOC(c3ccc(N4CCCCC4)cc3)C2)o1 (stereo not shown) [Compound 1] | 4.6 | non-toxic |  | 
7 | O=C1COCCN1c1ccc(C2CC(c3ccc([N+](=O)[O-])o3)=NO2)cn1 (stereo not shown) [Compound 19, 4-(5-(3-(5-nitrofuran-2-yl)-4,5-dihydroisoxazol-5-yl)pyridin-2-yl)morpholin-3-one] |  |  |  | MIC [4]: 1000 µg/mL (≈ 2800 µM)
8 | CC1COc2c(N3CCN(C)CC3)c(F)cc3c(=O)c(C(=O)O)cn1c23 (stereo not shown) [Ofloxacin] |  |  |  | AUCo0-∞ [5]: 6.1–11.8 ^* hr mg/L
9 | O=[N+]([O-])c1ccc(C2=NOC(c3ccc(N4CCOCC4)c(F)c3)C2)o1 (stereo not shown) [Compound 8, 4-(2-Fluoro-4-(3-(5-nitrofuran-2-yl)-4,5-dihydroisoxazol-5-yl)phenyl)morpholine] |  |  | 6.25 (≈ 17.3 µM) | 
